These results are taken from patent publication US12433863B2, “Pharmaceutical compositions and uses directed to lysosomal storage disorders” (INTRABIO LIMITED, priority 2016, dated 2025).

Molecules are shown by their SMILES.

Assay [1] relates to Tay-Sachs disease patient fibroblasts. The experiment in a line: Glycosphingolipid (GSL) levels by HPLC in Tay-Sachs disease patient fibroblasts. The assay is classed as cell-based, human. The note with it: 1 mM for 6 days, p<0.05.
The test system of assay [2] is Sandhoff disease patient fibroblasts. As to the kind of experiment: Glycosphingolipid (GSL) levels by HPLC in Sandhoff disease patient fibroblasts. The class given is cell-based, human. The note with it: 1 mM for 6 days.
Assay [3] concerns AB variant of Tay-Sachs disease patient fibroblasts. As to the kind of experiment: Glycosphingolipid (GSL) levels by HPLC in AB variant of Tay-Sachs disease patient fibroblasts. The note with it: 1 mM for 6 days. The class given is cell-based, human.
Assay [4] relates to patients genetically diagnosed with Tay-Sachs disease. As to the kind of experiment: Case studies of Tay-Sachs disease patients (SARA, SCAFI, MoCA, mRDS, EQ-5D-5L). The class given is in vivo, human. An excerpt: For example, to evaluate overall neurological status, mDRS, a four-domain scale (ambulation, manipulation, language and swallowing), may be applied. Cerebellar function may be evaluated using SARA, an eight-item clinical rating scale (gait, stance, sitting, speech, fine motor function and taxis; range 0-40, where 0 is the best neurological status and 40 the worst), and SCAFI, comprising the 8-m-Walking-Time (8MW; performed by having patients walking twice as quickly as possible from one line to another excluding turning), 9-Hole-Peg-Test (9HPT) and the number of “PATA” repetitions over 10 s. Subjective impairment and quality of life may be evaluated using the EQ-5D-5L questionnaire and VAS. To assess ocular motor function, 3-dimensional videooculography (EyeSeeCam) may be used to measure the peak velocity of saccades, gain of smooth pursuit, peak slow phase velocity of gaze-evoked nystagmus (gaze-holding function), peak slow phase velocity of optokinetic nystagmus, and gain of horizontal vestibulo-ocular reflex. To evaluate the cognitive state, WAIS-R or WISC-IV, and MoCA, assessing different cognitive domains, including attention and concentration, executive functions, memory, language, visuoconstructional skills, conceptual thinking, calculations, and orientation with a maximum of 30 points and a cut-off score of 26, may be used. The skilled person will know how to perform these and other such tests.
In particular, the patient was not able to stand or walk, could do single steps with strong support, had distinct postural instability, ocular movement disorder, dysphagia and dysarthria, and mild cognitive function disorder.
Before treatment was commenced, examination of the patient indicated a Scale for Assessment and Rating of Ataxia (SARA) score of 15.5/40. In addition, results from the patient's Spinocerebellar Ataxia Functional Index (SCAFI) analysis were: • Mean 8-meters Walking Test (8MW): 21.6 s • MW 9-Hole Pegboard Test Dominant (9HPTD) (right): 48.3 s • MW 9-Hole Pegboard Test Non-Dominant (9HPTND): 44.9 s • MW PATA Word Test: 20 • Montreal Cognitive Assessment (MoCA): 18/30
The day following this examination, the patient was started on therapy with acetyl-leucine, at a dose of 3 g per day for the first week, followed by a dose of 5 g per day for the second week onwards.
In particular, walking was not possible without support, and the patient suffered from dysphagia and speech disorder, ocular movement disorder, and mild cognitive function disorder.
Before treatment was commenced, examination of the patient indicated a Scale for Assessment and Rating of Ataxia (SARA) score of 10.5/40. In addition, results from the patient's Spinocerebellar Ataxia Functional Index (SCAFI) analysis were: • Mean 8-meters Walking Test (8MW): 12.5 s • MW 9-Hole Pegboard Test Dominant (9HPTD) (right): 21.5 s • MW 9-Hole Pegboard Test Non-Dominant (9HPTND): 35.5 s • MW PATA Word Test: 18 • Montreal Cognitive Assessment (MoCA): 21/30
The day of the examination, the patient was started on therapy with acetyl-leucine at a dose of 3 g per day for the first week, followed by a dose of 5 g per day for the second week onwards.
The patient in this case study was a person who was genetically diagnosed with Tay-Sachs disease and who had epileptic cramps (tonic-clonic, about 10 seconds, self-limiting) almost every day before falling asleep, ocular movement disorder, anarthria, distinct problems in cognitive function and concentration (neurological examination was not possible), was not able to stand or walk by themself, and was very limited in daily activities (eating, washing or dressing themself was not possible).
Before treatment was commenced, examination of the patient indicated a Scale for Assessment and Rating of Ataxia (SARA) score of 36/40, a mRDS score of 18/24, a EQ-5D-5L visual scale of 50, and a 8MWT of 18.1 (only with strong support). […]

Assay [5] has as its system patient genetically diagnosed with GM1 Gangliosidosis. The experiment in a line: Case study of a GM1 Gangliosidosis patient (SARA, mRDS, EQ-5D-5L). The assay is classed as in vivo, human. The note with it: after one month. From the text: The patient in this case study was a person who was genetically diagnosed with GM1 Gangliosidosis and who was not able to stand or walk by themself, was very limited in daily activities (eating, washing, dressing themself was not possible), and had ocular movement disorder, anarthria, and distinct problems in cognitive function and concentration (neurological examination was not possible).
Before treatment was commenced, examination of the patient indicated a Scale for Assessment and Rating of Ataxia (SARA) score of 35/40, a mRDS score of 15, and a EQ-5D-5L visual scale of 50.
The patient was started on therapy with acetyl-leucine at a dose of 1.5 g per day for the first week, followed by a dose of 3 g per day for the second week onwards.

Assay [6] deals with patients with cerebellar ataxia. To be noted: cited from earlier work.

Turning to `CC(=O)NC(CC(C)C)C(=O)O` (racemic) [acetyl-DL-leucine], the “GSL levels (GSL storage)” value in assay [1] is “decrease was statistically significant”; in assay [2] it was “trend towards decreased GSL levels”; in assay [3], “trend towards decreased GSL levels”. The “Overall change in symptoms” value in assay [4] (Patient 1) is “improvement in symptoms”. The SARA is reported as 17/40 in assay [4] (Patient 1, 3 g then 5 g per day, after 4 months); 5/40 in assay [4] (Patient 2, 3 g then 5 g per day, after one month); 33/40 in assay [4] (Patient 3, 1.5 g then 3 g per day, after one month); 35/40 in assay [5] (1.5 g then 3 g per day). Also, the MoCA in assay [4] (Patient 1, after 4 months) is on record as 22/30; in assay [4] (Patient 1, after one month), 21/30; in assay [4] (Patient 2, after one month) it was 25/30. Also, the Clinical re-examination findings result in assay [4] (Patient 1, after four months) was “stable condition with slightly improved cognitive function but had deterioration of stance, gait and fine motor function”; in assay [4] (Patient 1, after one month), “improved fine motor skills and reduced hand tremor”; in assay [4] (Patient 2, after one month), “increased enunciation, improved postural stability, and enhanced cognitive function”; in assay [5], “stable general condition, increased gait (more fluent), and stable stance in natural position”. Also, in assay [5], the mRDS turned out to be 16. Besides, the “Benefit in cerebellar ataxia, another case series” value in assay [6] (Pelz et al. 2015) is on record as “did not find benefit”. Besides, the “Temporal gait variability, quantitative gait analysis” value in assay [6] (Schniepp et al. 2015) is recorded as “improved temporal gait variability”. Also, in assay [6] (Strupp et al. 2013), the “Cerebellar ataxia symptoms, case series” value was “symptomatic improvement of cerebellar ataxia”.
